The values below come from patent US20220089575A1, “FARNESOID X RECEPTOR AGONISTS AND USES THEREOF” (Metacrine, Inc., priority 2017, published 2022).

The structures appear in SMILES notation.

As usually defined, the EC50 is the concentration needed to bring the measured effect to its halfway point. Lower therefore signals higher potency in that assay.

The target of this test is T1, hFXR (Homo sapiens, UniProt Q96RI1).
T1 construct: expressed in transfected cells; host or cells: CV-1 cells
T1 sequence (Q96RI1 1-486): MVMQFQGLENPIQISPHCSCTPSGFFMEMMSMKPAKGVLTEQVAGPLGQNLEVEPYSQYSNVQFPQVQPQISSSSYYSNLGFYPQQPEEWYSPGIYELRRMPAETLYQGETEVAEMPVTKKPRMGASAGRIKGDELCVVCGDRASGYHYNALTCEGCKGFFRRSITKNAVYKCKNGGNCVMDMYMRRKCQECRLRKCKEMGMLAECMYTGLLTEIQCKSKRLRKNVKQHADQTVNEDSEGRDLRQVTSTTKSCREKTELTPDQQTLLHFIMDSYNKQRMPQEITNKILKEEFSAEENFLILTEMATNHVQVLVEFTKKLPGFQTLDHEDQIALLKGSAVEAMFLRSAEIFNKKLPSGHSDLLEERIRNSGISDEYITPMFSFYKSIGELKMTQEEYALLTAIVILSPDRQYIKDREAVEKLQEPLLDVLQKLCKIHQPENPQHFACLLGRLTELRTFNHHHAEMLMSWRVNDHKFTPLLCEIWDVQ
T1 sequence (P19793 1-462 partner): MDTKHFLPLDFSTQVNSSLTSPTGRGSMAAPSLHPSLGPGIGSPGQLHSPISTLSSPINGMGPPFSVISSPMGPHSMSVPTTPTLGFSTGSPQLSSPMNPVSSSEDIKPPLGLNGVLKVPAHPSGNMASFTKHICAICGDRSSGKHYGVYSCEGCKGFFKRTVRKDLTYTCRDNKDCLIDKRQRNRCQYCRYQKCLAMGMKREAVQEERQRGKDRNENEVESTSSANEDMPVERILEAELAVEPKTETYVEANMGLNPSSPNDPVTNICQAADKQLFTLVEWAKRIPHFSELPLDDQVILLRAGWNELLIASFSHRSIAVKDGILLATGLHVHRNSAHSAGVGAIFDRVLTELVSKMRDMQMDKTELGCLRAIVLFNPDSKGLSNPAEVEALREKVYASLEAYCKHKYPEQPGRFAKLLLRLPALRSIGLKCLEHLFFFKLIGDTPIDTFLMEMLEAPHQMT
Description: In Vitro FXR Assay (TK): TK-ECRE-luc reporter in transfected CV-1 cells. It counts as cell-based. As to conditions: 18 hrs, luminescence, maximum efficacy of <25% of the Fexarmine control classified as '+'. Put shortly:
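CV-1 cells in DMEM with 10% charcoal-stripped FBS were co-transfected with hFXR, hRXR, TK-ECRE-luc reporter and pCMX-YFP plasmids. After 18 h, compounds serially diluted in DMSO were added for a further 18 h, then cells were lysed and luminescence read.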
Take `COc1ccc([C@H]2CC[C@H](CN(c3cc(-c4coc(C5CC5)n4)ccn3)C(=O)[C@H]3CC[C@H](OC(=O)NCCCO)CC3)CC2)nc1C` [Compound 6.62]: the EC50 is at most 250 nM.
Then `COCCN(C)C(=O)O[C@H]1CC[C@H](C(=O)N(C[C@H]2CC[C@H](c3ccc(OC)c(C)n3)CC2)c2cc(-c3coc(C4CC4)n3)ccn2)CC1` [Compound 6.63], with at most 250 nM.
Then `COc1ccc([C@H]2CC[C@H](CN(c3cc(-c4coc(C5CC5)n4)ccn3)C(=O)[C@H]3CC[C@H](OC(=O)N4CCN(C)CC4)CC3)CC2)cc1C` [Compound 6.64, trans-4-((4-(2-Cyclopropyloxazol-4-yl)pyridine-2-yl)((trans-4-(4-methoxy-3-methylphenyl)cyclohexyl)methyl)carbamoyl)cyclohexyl 4-methylpiperazine-1-carboxylate], with at most 250 nM.
Then `COc1ccc([C@H]2CC[C@H](CN(c3cc(-c4coc(C5CC5)n4)ccn3)C(=O)[C@H]3CC[C@H](OC(=O)N4CCN(C)CC4)CC3)CC2)nc1C` [Compound 6.65, trans-4-((4-(2-Cyclopropyloxazol-4-yl)pyridine-2-yl)((trans-4-(5-methoxy-6-methylpyridin-2-yl)cyclohexyl)methyl)carbamoyl)cyclohexyl 4-methylpiperazine-1-carboxylate], with at most 250 nM.
As for `COc1ccc([C@H]2CC[C@H](CN(c3cc(-c4coc(C5CC5)n4)ccn3)C(=O)[C@H]3CC[C@H](OC(=O)NC[C@H](O)CO)CC3)CC2)nc1C` [Compound 6.66, trans-4-((4-(2-Cyclopropyloxazol-4-yl)pyridine-2-yl)((trans-4-(5-methoxy-6-methylpyridin-2-yl)cyclohexyl)methyl)carbamoyl)cyclohexyl ((S)-2,3-dihydroxypropyl)carbamate], the EC50 lay in the range of 250 to 1000 nM.
In turn, `COc1ccc([C@H]2CC[C@H](CN(c3cc(-c4coc(C5CC5)n4)ccn3)C(=O)[C@H]3CC[C@H](OC(=O)N(C)CC(C)O)CC3)CC2)nc1C` (stereo partly drawn) [Compound 6.67, trans-4-((4-(2-Cyclopropyloxazol-4-yl)pyridin-2-yl)((trans-4-(5-methoxy-6-methylpyridin-2-yl)cyclohexyl)methyl)carbamoyl)cyclohexyl(2-hydroxypropyl)(methyl)carbamate] yielded an EC50 of at most 250 nM.
`COc1ccc([C@H]2CC[C@H](CN(c3cc(-c4coc(C5CC5)n4)ccn3)C(=O)[C@H]3CC[C@H](OC(=O)NCC(C)(O)C(C)C)CC3)CC2)nc1C` (stereo partly drawn) [Compound 6.68, trans-4-((4-(2-Cyclopropyloxazol-4-yl)pyridin-2-yl)((trans-4-(5-methoxy-6-methylpyridin-2-yl)cyclohexyl)methyl)carbamoyl)cyclohexyl (2-hydroxy-2,3-dimethylbutyl)carbamate] registered an EC50 of at most 250 nM.
Regarding `CCC(C)(O)CNC(=O)O[C@H]1CC[C@H](C(=O)N(C[C@H]2CC[C@H](c3ccc(OC)c(C)n3)CC2)c2cc(-c3coc(C4CC4)n3)ccn2)CC1` (stereo partly drawn) [Compound 6.69, trans-4-((4-(2-Cyclopropyloxazol-4-yl)pyridin-2-yl)((trans-4-(5-methoxy-6-methylpyridin-2-yl)cyclohexyl)methyl)carbamoyl)cyclohexyl (2-hydroxy-2-methylbutyl)carbamate], the EC50 is at most 250 nM.
`COc1ccc([C@H]2CC[C@H](CN(c3cc(-c4coc(C5CC5)n4)ccn3)C(=O)[C@H]3CC[C@H](OC(=O)NCC(C)(C)O)CC3)CC2)nc1C` [Compound 6.70, trans-4-((4-(2-Cyclopropyloxazol-4-yl)pyridin-2-yl)((trans-4-(5-methoxy-6-methylpyridin-2-yl)cyclohexyl)methyl)carbamoyl)cyclohexyl (2-hydroxy-2-methylpropyl)carbamate]: the EC50 is at most 250 nM.
The same measure for `COc1ccc([C@H]2CC[C@H](CN(c3cc(-c4coc(C5CC5)n4)ccn3)C(=O)[C@H]3CC[C@H](OC(=O)NC(C)CO)CC3)CC2)nc1C` (stereo partly drawn) [Compound 6.71, trans-4-((4-(2-Cyclopropyloxazol-4-yl)pyridin-2-yl)((trans-4-(5-methoxy-6-methylpyridin-2-yl)cyclohexyl)methyl)carbamoyl)cyclohexyl (1-hydroxypropan-2-yl)carbamate]: at most 250 nM; for `COc1ccc([C@H]2CC[C@H](CN(c3cc(-c4coc(C5CC5)n4)ccn3)C(=O)[C@H]3CC[C@H](OC(=O)NCC(C)O)CC3)CC2)nc1C` (stereo partly drawn) [Compound 6.72, trans-4-((4-(2-Cyclopropyloxazol-4-yl)pyridin-2-yl)((trans-4-(5-methoxy-6-methylpyridin-2-yl)cyclohexyl)methyl)carbamoyl)cyclohexyl (2-hydroxypropyl)carbamate]: at most 250 nM; for `COc1ccc([C@H]2CC[C@H](CN(c3cc(-c4coc(C5CC5)n4)ccn3)C(=O)[C@H]3CC[C@H](OC(=O)NC(C)C(C)O)CC3)CC2)nc1C` (stereo partly drawn) [Compound 6.73, trans-4-((4-(2-Cyclopropyloxazol-4-yl)pyridin-2-yl)((trans-4-(5-methoxy-6-methylpyridin-2-yl)cyclohexyl)methyl)carbamoyl)cyclohexyl (3-hydroxybutan-2-yl)carbamate]: at most 250 nM.
`CCN(CCO)C(=O)O[C@H]1CC[C@H](C(=O)N(C[C@H]2CC[C@H](c3ccc(OC)c(C)n3)CC2)c2cc(-c3coc(C4CC4)n3)ccn2)CC1` [Compound 6.74, trans-4-((4-(2-Cyclopropyloxazol-4-yl)pyridin-2-yl)((trans-4-(5-methoxy-6-methylpyridin-2-yl)cyclohexyl)methyl)carbamoyl)cyclohexyl ethyl(2-hydroxyethyl)carbamate] had an EC50 of at most 250 nM.
The same measure for `COc1ccc([C@H]2CC[C@H](CN(c3cc(-c4coc(C(C)C)n4)ccn3)C(=O)[C@H]3CC[C@H](OC(=O)N4CC(S(C)(=O)=O)C4)CC3)CC2)nc1C` [Compound 6.75, trans-4-((4-(2-Isopropyloxazol-4-yl)pyridine-2-yl)((trans-4-(5-methoxy-6-methylpyridin-2-yl)cyclohexyl)methyl)carbamoyl)cyclohexyl 3-(methylsulfonyl)azetidine-1-carboxylate]: at most 250 nM; for `COc1ccc([C@H]2CC[C@H](CN(c3cc(-c4coc(C5CC5)n4)ccn3)C(=O)[C@H]3CC[C@H](OC(=O)N4CC(OCCO)C4)CC3)CC2)nc1C` [Compound 6.76, trans-4-((4-(2-Cyclopropyloxazol-4-yl)pyridine-2-yl)((trans-4-(5-methoxy-6-methylpyridin-2-yl)cyclohexyl)methyl)carbamoyl)cyclohexyl 3-(2-hydroxyethoxy)azetidine-1-carboxylate]: at most 250 nM.
Compound `COc1ccc([C@H]2CC[C@H](CN(c3cc(-c4coc(C(C)C)n4)ccn3)C(=O)[C@H]3CC[C@H](OC(=O)N4CCN(C)CC4)CC3)CC2)nc1C` [Compound 6.77, trans-4-((4-(2-Isopropyloxazol-4-yl)pyridine-2-yl)((trans-4-(5-methoxy-6-methylpyridin-2-yl)cyclohexyl)methyl)carbamoyl)cyclohexyl 4-methylpiperazine-1-carboxylate] displayed an EC50 of at most 250 nM.
The same measure for `COc1ccc([C@H]2CC[C@H](CN(c3cc(-c4coc(C5CC5)n4)ccn3)C(=O)[C@H]3CC[C@H](OC(=O)N4CCNCC4)CC3)CC2)nc1C` [Compound 6.78, trans-4-(4-(2-Cyclopropyloxazol-4-yl)pyridine-2-yl)((trans-4-(5-methoxy-6-methylpyridin-2-yl)cyclohexyl)methyl) carbamoyl)cyclohexylpiperazine-1-carboxylate]: 250 to 1000 nM; for `COc1ccc([C@H]2CC[C@H](CN(c3cc(-c4coc(C5CC5)n4)ccn3)C(=O)[C@H]3CC[C@H](OC(=O)NC4CCN(C)CC4)CC3)CC2)nc1C` [Compound 6.79, trans-4-((4-(2-Cyclopropyloxazol-4-yl)pyridine-2-yl)((trans-4-(5-methoxy-6-methylpyridin-2-yl)cyclohexyl)methyl)carbamoyl)cyclohexyl (1-methylpiperidin-4-yl)carbamate]: at most 250 nM.
The compound `COc1ccc([C@H]2CC[C@H](CN(c3cc(-c4coc(C5CC5)n4)ccn3)C(=O)[C@H]3CC[C@H](OC(=O)N[C@@H]4CCCN(C)C4)CC3)CC2)nc1C` [Compound 6.80, trans-4-((4-(2-Cyclopropyloxazol-4-yl)pyridin-2-yl)((trans-4-(5-methoxy-6-methylpyridin-2-yl)cyclohexyl)methyl)carbamoyl)cyclohexyl ((R)-1-methylpiperidin-3-yl)carbamate] showed an EC50 of at most 250 nM.
